The test system of experiment [1] is LPS-induced TNFα secretion in monocyte-derived macrophages (MdM). Put plainly: MdM assay: LPS-triggered TNFα (ELISA). The experiment is classed as cell-based, human. The following applies: Homo sapiens, Macrophage, LPS-triggered TNFα inhibition. In short, it runs like this: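 TNFα ELISA read on supernatants harvested 20 h after LPS (final 200 ng/mL) stimulation. Cells were day-10 macrophages derived from human blood CD14+ monocytes, exposed to 3-fold compound dilutions for 1 h at 37 °C beforehand, with DMSO held at 0.2%.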
On the technique in general: An ELISA detects its analyte on a solid surface through an enzyme-linked reagent.

The subject of experiment [2] is LPS triggered IL-10 secretion in monocyte-derived macrophages (MdM). Nature of the experiment: MdM assay: LPS-triggered IL-10 (ELISA). It counts as cell-based, human. The note with it: maximal fold change vs LPS only, median across assays. Here is the method: This assay evaluates illustrative compounds of the invention for their inhibition of LPS-induced TNFα and LPS triggered IL-10 secretion in monocyte-derived macrophages.
PBMCs are isolated from human blood samples (buffycoats). The buffy coat is aseptically transferred into a 50 mL Falcon tube, and diluted 1/2 in PBS. Falcon tubes are filled with 20 mL Lymphoprep™, on top of which 25 mL of the buffy coat is carefully added, tubes are centrifuged for 35 min at 400 g in temperature controlled centrifuge, without brake, at 25° C. PBMCs are aspirated from the white interface layer between sample and Lymphoprep™. PBMCs are washed five times in PBS.
PBMCs are centrifuged at 300×g for 10 min and resuspended at a density of 1.0E07 cells/80 μL Miltenyi buffer (PBS, pH 7.4, 1% FBS, 2 mM EDTA).
Starting from this point of the protocol all steps are performed on ice. 20 μL of CD14+ micro-beads are added per 1.0E07 cells, the tube is mixed and incubated for 15 min in the fridge at 4° C. Cell suspension volume is adjusted to total volume of 100 mL using Miltenyi buffer, mixed gently and subsequently centrifuged for 10 min at 300× g. Supernantant is discarded and cell pellet is resuspended in 12 mL of Miltenyi buffer.
Four LS columns are placed in the MACS Separator (magnet) from Miltenyi Biotec, and are prewet by rinsing with 3 mL of MACS buffer per column. Three mL of cell suspension is added onto the column (max 1*10^8 of labelled cells/column), and columns are subsequently washed 3 times with 3 mL of Miltenyi buffer.
The columns are removed from the magnets, and 5 mL of Miltenyi buffer are added to the column to flush out the CD14+ fraction by pushing the plunger into the column. The flushed fractions are collected in a fresh 50 mL Falcon and volume is adjusted to 30 mL using Miltenyi buffer, cells are centrifuged for 10 min at 300× g. The obtained cell pellet is resuspended in 10 mL RPMI w/o FBS, and cell density is determined using a hematologic analyser (Sysmex XS-500i).
On day 10, MdMs are triggered and compound is added.
A compound dilution plate is made in 100% DMSO by 3-fold dilution of 10 mM stock solution. An intermediate dilution plate (10× final concentration) is made by diluting the compound dilution plate 50-fold in RPMI medium.
Medium is carefully removed from cell plates using multichannel pipette, and replaced by 80 μL fresh medium. 10 μL of the 10× final concentration compound is added to the cells and incubated for 1 hour at 37° C. before addition of trigger. No trigger conditions/trigger conditions are spiked with equal final DMSO concentrations of 0.2% DMSO. 10 μL of 10×LPS (final conc. 200 ng/mL) solution are added to all wells except for the ‘no trigger wells’ where 10 μL medium is added. Supernatant is collected after 2 h (IL-10 determination) and after 20 h (TNFα determination) of LPS triggering.
Plates are washed three times with PBST, where after 100 μL of Strep-HRP conjugate (0.5 μg/mL final concentration diluted in dilution buffer) is added. Plates are incubated in the dark, at 37° C. for 30 min. Plates are washed three times with PBST. […] 100 μL of substrate solution is added to each well and incubated until brilliant blue color develops. The reaction is stopped by adding 50 μL of 1 M H2SO4, after which absorbance is measured at 450 nm on the SpectraMax i3, Molecular Devices.
To quantify these inductions fold changes (FC) compared to ‘LPS only’ are calculated for each concentration tested and the maximal FC is calculated (IL-10 FCmax):
[formula] wherein ABS=Absorbance measured at 450 nm.
The median maximal FC for test compounds across two or more assays is reported (IL-10FCmax median).

For another experiment, the target named is T1, SIK3 (Homo sapiens, UniProt Q9Y2K2).
T1 construct: purchased SignalChem S12-11G-100
T1 sequence (Q9Y2K2 whole entry): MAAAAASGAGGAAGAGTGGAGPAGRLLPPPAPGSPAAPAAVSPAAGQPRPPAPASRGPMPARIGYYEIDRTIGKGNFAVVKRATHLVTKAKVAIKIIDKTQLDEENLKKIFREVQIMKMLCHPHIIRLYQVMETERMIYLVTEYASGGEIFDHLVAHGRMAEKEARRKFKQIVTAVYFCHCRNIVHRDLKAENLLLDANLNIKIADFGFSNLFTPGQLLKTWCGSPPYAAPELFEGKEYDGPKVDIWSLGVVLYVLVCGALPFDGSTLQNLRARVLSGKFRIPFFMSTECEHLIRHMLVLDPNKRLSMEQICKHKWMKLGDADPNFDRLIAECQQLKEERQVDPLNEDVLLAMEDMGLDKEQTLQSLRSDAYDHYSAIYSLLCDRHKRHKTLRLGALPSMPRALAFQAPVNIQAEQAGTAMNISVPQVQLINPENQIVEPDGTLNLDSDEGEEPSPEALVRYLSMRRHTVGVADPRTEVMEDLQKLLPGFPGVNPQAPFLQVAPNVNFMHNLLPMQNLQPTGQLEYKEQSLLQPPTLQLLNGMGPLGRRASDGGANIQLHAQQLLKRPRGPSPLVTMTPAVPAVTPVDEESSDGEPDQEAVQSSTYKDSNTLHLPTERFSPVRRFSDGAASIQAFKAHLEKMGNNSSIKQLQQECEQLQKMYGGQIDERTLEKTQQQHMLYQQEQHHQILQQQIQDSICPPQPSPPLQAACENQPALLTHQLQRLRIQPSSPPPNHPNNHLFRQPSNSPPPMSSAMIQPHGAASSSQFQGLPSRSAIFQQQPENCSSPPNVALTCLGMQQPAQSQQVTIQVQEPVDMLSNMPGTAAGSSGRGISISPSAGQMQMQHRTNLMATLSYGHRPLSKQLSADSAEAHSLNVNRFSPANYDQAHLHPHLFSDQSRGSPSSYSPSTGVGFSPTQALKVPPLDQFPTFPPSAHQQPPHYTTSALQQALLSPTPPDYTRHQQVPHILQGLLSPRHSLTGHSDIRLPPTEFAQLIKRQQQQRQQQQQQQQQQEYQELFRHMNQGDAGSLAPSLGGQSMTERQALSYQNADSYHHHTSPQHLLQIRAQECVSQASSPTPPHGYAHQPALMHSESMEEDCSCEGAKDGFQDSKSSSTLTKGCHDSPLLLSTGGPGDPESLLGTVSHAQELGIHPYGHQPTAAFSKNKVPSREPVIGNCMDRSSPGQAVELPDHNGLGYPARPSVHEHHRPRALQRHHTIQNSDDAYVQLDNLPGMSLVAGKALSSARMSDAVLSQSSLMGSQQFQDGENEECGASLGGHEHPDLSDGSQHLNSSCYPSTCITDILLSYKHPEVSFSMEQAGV
Nature of the experiment: biochemical. The procedure, abridged: (§1)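 Read-out: ^33P incorporated into AMARA peptide, counted on filter plates, taken as kinase activity. Reactions start on addition of labeled/unlabeled ATP to enzyme plus substrate and end with phosphoric acid. Controls: 1% DMSO (negative) and 10 μM staurosporine (positive), final.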

The target in a further experiment is T2, SIK2 (Homo sapiens, UniProt Q9H0K1).
T2 construct: purchased ThermoFisher Scientific PV4792
T2 sequence (Q9H0K1 whole entry): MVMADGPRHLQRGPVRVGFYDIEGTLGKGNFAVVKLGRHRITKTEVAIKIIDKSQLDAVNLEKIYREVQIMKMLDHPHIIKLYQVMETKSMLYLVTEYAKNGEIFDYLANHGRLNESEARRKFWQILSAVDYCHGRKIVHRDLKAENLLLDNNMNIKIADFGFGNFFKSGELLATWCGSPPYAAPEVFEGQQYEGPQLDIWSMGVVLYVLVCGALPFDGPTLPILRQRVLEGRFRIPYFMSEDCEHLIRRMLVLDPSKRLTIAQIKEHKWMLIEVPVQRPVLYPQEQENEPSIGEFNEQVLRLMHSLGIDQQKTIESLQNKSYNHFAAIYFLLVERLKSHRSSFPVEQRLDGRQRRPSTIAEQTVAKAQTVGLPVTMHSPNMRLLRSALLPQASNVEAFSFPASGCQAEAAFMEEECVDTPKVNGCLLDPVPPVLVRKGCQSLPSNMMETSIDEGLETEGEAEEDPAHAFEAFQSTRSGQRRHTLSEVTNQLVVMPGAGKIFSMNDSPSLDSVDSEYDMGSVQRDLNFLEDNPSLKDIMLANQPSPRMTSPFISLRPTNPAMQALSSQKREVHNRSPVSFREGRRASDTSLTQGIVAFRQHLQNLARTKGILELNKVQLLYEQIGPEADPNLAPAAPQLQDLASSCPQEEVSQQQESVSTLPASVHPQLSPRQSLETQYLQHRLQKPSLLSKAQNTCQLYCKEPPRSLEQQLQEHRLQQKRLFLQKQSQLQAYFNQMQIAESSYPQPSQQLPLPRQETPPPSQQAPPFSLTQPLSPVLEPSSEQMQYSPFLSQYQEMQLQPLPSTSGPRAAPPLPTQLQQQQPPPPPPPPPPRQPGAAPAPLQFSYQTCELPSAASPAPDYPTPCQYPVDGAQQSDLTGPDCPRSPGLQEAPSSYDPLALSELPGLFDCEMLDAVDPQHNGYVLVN
Put plainly: biochemical. The note with it: 33P radioactive SIK kinase assay, AMARA peptide, 10 μM ATP. The procedure, abridged: as §1

The target in the next experiment is T3, SIK1 (Homo sapiens, UniProt P57059).
T3 construct: purchased Carna Biosciences 02-131
T3 sequence (P57059 whole entry): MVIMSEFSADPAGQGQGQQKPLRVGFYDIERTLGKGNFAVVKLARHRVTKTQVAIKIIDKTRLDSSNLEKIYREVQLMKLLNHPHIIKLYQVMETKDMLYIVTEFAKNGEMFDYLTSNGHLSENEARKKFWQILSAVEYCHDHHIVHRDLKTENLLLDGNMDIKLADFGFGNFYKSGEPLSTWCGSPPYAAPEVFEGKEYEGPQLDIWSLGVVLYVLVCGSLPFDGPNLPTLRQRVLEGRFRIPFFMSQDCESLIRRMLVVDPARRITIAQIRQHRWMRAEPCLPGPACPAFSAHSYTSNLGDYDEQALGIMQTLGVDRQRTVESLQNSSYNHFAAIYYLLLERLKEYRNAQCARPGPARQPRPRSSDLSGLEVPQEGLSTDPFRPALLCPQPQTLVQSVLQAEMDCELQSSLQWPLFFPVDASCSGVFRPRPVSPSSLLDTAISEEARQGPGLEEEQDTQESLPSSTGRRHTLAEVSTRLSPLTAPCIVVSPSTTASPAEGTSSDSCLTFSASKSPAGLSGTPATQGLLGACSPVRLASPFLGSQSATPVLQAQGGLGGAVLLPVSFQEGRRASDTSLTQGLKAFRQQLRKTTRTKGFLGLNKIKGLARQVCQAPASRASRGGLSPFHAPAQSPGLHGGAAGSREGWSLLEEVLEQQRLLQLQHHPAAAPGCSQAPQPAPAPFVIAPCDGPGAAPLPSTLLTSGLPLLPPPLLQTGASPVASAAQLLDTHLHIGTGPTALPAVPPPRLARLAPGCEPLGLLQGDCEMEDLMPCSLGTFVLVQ
Put plainly: biochemical. The note with it: 33P radioactive SIK kinase assay, AMARA peptide, 10 μM ATP; read-out: SIK1 IC50. In short, it runs like this: as §1

Some results are limits rather than exact numbers.

Broadly, the EC50 is the concentration giving half of the maximal effect. High values mean a less potent agent, low ones a more potent agent. Usually IC50 stands for the concentration that inhibits the measured activity by half. `CCn1cc(-c2cnc3c(-c4cc(OC)c(C(=O)NCC(F)(F)F)c(OC)c4)cnn3c2)cn1` [compound 20, 4-[6-(1-ethylpyrazol-4-yl)pyrazolo[1,5-a]pyrimidin-3-yl]-2,6-dimethoxy-N-(2,2,2-trifluoroethyl)benzamide] registered an EC50 in experiment [1] of 100 to 1000 nM. Besides, the “IL-10 FCmax median” value in experiment [2] is “++ (>1.5-4.5)”. Further, the concentration for half-maximal inhibition (IC50) lay within 10 to 100 nM on SIK3, 0.01 to 10 nM on SIK2 and 10 to 100 nM at SIK1.

In the case of `COc1cc(-c2cnn3cc(-c4cnn(C)c4)cnc23)cc(OC)c1C(=O)NCC(F)F` [compound 24, N-(2,2-difluoroethyl)-2,6-dimethoxy-4-[6-(1-methylpyrazol-4-yl)pyrazolo[1,5-a]pyrimidin-3-yl]benzamide], in experiment [1], the EC50 was 100 to 1000 nM. Also, in experiment [2], the “IL-10 FCmax median” value is listed as “++ (>1.5-4.5)”. Moreover, the results for the IC50 against SIK3, on SIK2 and at SIK1 were 10 to 100 nM, 0.01 to 10 nM and 10 to 100 nM, respectively.

The molecule `COc1cc(-n2cnc3cc(-c4cnn(CCO)c4)ccc32)cc(OC)c1C(=O)NCC(F)(F)F` [compound 33, 4-[5-[1-(2-hydroxyethyl)pyrazol-4-yl]benzimidazol-1-yl]-2,6-dimethoxy-N-(2,2,2-trifluoroethyl)benzamide] returned an EC50 in experiment [1] greater than 5000 nM. Also, the “IL-10 FCmax median” value in experiment [2] is reported as “++ (>1.5-4.5)”. The IC50 against SIK3, on SIK2 and at SIK1 was 0.01 to 10 nM each time.

As for `COc1cc(-n2cnc3cc(-c4cnn(CC#N)c4)ccc32)cc(OC)c1C(=O)NCC(F)(F)F` [compound 40, 4-[5-[1-(cyanomethyl)pyrazol-4-yl]benzimidazol-1-yl]-2,6-dimethoxy-N-(2,2,2-trifIuoroethyl)benzamide], the EC50 in experiment [1] fell in the range of 0.1 to 100 nM. Further, the “IL-10 FCmax median” value in experiment [2] was “++ (>1.5-4.5)”. In addition, the IC50 at SIK3 lay in the range of 0.01 to 10 nM; at SIK2 it was 0.01 to 10 nM; on SIK1 it was 10 to 100 nM.

Take `COc1cc(-n2cnc3cc(-c4cnn(CCN5CCOCC5)c4)ccc32)cc(OC)c1C(=O)NCC(F)(F)F` [compound 41, 2,6-dimethoxy-4-[5-[1-(2-morpholinoethyl)pyrazol-4-yl]benzimidazol-1-yl]-N-(2,2,2-trifluoroethyl)benzamide]: in experiment [1], the EC50 is 100 to 1000 nM. Also, in experiment [2], the “IL-10 FCmax median” value is on record as “++ (>1.5-4.5)”. The IC50 against SIK3 was 0.01 to 10 nM; at SIK2, 0.01 to 10 nM; on SIK1, 10 to 100 nM.

In experiment [1], `CCn1cc(-c2ccc3c(c2)ncn3-c2cc(OC)c(C(=O)NC3C[C@H]3C)c(OC)c2)cn1` (stereo partly drawn) [compound 49, 4-[5-(1-ethylpyrazol-4-yl)benzimidazol-1-yl]-2,6-dimethoxy-N-[(2R)-2-methylcyclopropyl]benzamide] showed an EC50 greater than 5000 nM. The “IL-10 FCmax median” value in experiment [2] is recorded as “++ (>1.5-4.5)”. The half-inhibitory concentration (IC50) against SIK3, on SIK2 and at SIK1 was 10 to 100 nM each time.

In experiment [1], `CCn1cc(-c2ccc3c(c2)ncn3-c2cc(OC)c(C(=O)NCC#N)c(OC)c2)cn1` [compound 50, N-(cyanomethyl)-4-[5-(1-ethylpyrazol-4-yl)benzimidazol-1-yl]-2,6-dimethoxy-benzamide] had a concentration giving a half-maximal response (EC50) of 100 to 1000 nM. The “IL-10 FCmax median” value in experiment [2] is “++ (>1.5-4.5)”. The IC50 lay in the range of 0.01 to 10 nM against SIK3, 0.01 to 10 nM on SIK2 and 10 to 100 nM on SIK1.

In experiment [1], `CCn1cc(-c2ccc3c(c2)ncn3-c2cc(OC)c(C(=O)NC3CC3)c(OC(F)F)c2)cn1` [compound 54, N-cyclopropyl-2-(difluoromethoxy)-4-[5-(1-ethylpyrazol-4-yl)benzimidazol-1-yl]-6-methoxy-benzamide] registered an EC50 of 0.1 to 100 nM. For the same molecule, the “IL-10 FCmax median” value in experiment [2] is listed as “++ (>1.5-4.5)”. Also, the IC50 on SIK3 was in the range of 0.01 to 10 nM; on SIK2 it was 0.01 to 10 nM; on SIK1, 10 to 100 nM.

`COc1cc(-n2cnc3cc(-c4cnn(C)c4)ccc32)cc(OC)c1C(=O)N[C@@H](C)C(F)(F)F` [compound 80, 2,6-dimethoxy-4-[5-(1-methylpyrazol-4-yl)benzimidazol-1-yl]-N-[(1S)-2,2,2-trifluoro-1-methyl-ethyl]benzamide] yielded an EC50 in experiment [1] of 0.1 to 100 nM. For the same molecule, the “IL-10 FCmax median” value in experiment [2] is listed as “++ (>1.5-4.5)”. Also, the IC50 was 10 to 100 nM at SIK3, 0.01 to 10 nM on SIK2 and 10 to 100 nM on SIK1.

As to `COc1cc(-n2cnc3cc(-c4cnn(C)c4)ccc32)cc(OC)c1C(=O)N[C@@H]1C[C@@H]1F` [compound 144, N-[(1R,2S)-2-fluorocyclopropyl)-2,6-dimethoxy-4-[5-(1-methylpyrazol-4-yl)benzimidazol-1-yl]benzamide], the EC50 in experiment [1] lay in the range of 0.1 to 100 nM. The “IL-10 FCmax median” value in experiment [2] is “++ (>1.5-4.5)”. The IC50 against SIK3, on SIK2 and at SIK1 was 0.01 to 10 nM each time.

Turning to `CCNC(=O)c1c(OC)cc(-c2cnc3cc(-c4cnn(C5CCN(C)CC5)c4)ccn23)cc1OC(F)F` [compound 148, 2-(difluoromethoxy)-N-ethyl-6-methoxy-4-[7-[1-(1-methyl-4-piperidyl)pvrazol-4-yl]imidazo[1,2-a]pyridin-3-yl]benzamide], the EC50 in experiment [1] is 0.1 to 100 nM. Besides, the “IL-10 FCmax median” value in experiment [2] is “++ (>1.5-4.5)”. Besides, the half-inhibitory concentration (IC50) against SIK3, on SIK2 and at SIK1 was 0.01 to 10 nM each time.

For `COc1cc(-n2cnc3cc(-c4cnn(C)c4)ccc32)cc(OC)c1C(=O)N[C@@H]1C[C@@H]1C(F)F` [compound 158], the EC50 in experiment [1] is 100 to 1000 nM. In experiment [2], the “IL-10 FCmax median” value is on record as “++ (>1.5-4.5)”. The IC50 is 0.01 to 10 nM on SIK3, 0.01 to 10 nM at SIK2 and 10 to 100 nM at SIK1.

With `COc1cc(-c2cnc3cc(-c4cnn(C)c4)ccn23)cc(Cl)c1C(=O)NCC(F)(F)F` [compound 207, 2-chloro-6-methoxy-4-[7-(1-methylpyrazol-4-yl)imidazo[1,2-a]pyridin-3-yl]-N-(2,2,2-trifluoroethyl)benzamide], the EC50 in experiment [1] lay in the range of 100 to 1000 nM. Also, the “IL-10 FCmax median” value in experiment [2] was “++ (>1.5-4.5)”. For the same molecule, the concentration for half-maximal inhibition (IC50) on SIK3 is 0.01 to 10 nM; on SIK2 it was 0.01 to 10 nM; at SIK1, 10 to 100 nM.

In experiment [1], `COc1cc(-c2cnc3cc(-c4cnn(C)c4)ccn23)cc(OC)c1C(=O)N1CC(C#N)C1` [compound 209, 1-[2,6-dimethoxy-4-[7-(1-methylpyrazol-4-yl)imidazo[1,2-a]pyridin-3-yl]benzoyl)azetidine-3-carbonitrile] registered an EC50 of 100 to 1000 nM. The “IL-10 FCmax median” value in experiment [2] was “++ (>1.5-4.5)”. In addition, the IC50 at SIK3, on SIK2 and at SIK1 was 0.01 to 10 nM throughout.

(Values after patent publication US12065443B2, “Compounds and pharmaceutical compositions thereof for the treatment of diseases” (priority 2017, dated 2024).)
